Values quoted from earlier work, collected in patent US20060201391A1, “Compositions having sustained-release insect repellency” (priority 2005, published 2006).

Test system: mosquitoes, stable flies and deer ticks

Structure (SMILES): C[C@H]1COC(=O)[C@@H]2[C@@H]1CC[C@@H]2C [DHN, dihydronepetalactone]
- insect repellency compared with DEET: substantially equivalent to DEET
